ChEMBL document CHEMBL1201862, “PubChem BioAssay data set” (2004)
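How tested: cells in 96-well plates exposed to compound for 48 hours at five concentrations. At the GI50, growth is halved.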 The source made the active and inactive calls. Cut-off read from the data, not from the text of the source: active = GI50 up to about 1.1 µM and inactive = higher.

Legend:
Experiment in all cases: DTP human tumour cell line panel, 48 h
PC-3 = tested on: PC-3
MCF7 = tested on: MCF7
IGROV-1 = tested on: IGROV-1
DU-145 = tested on: DU-145
MDA-MB-435 = tested on: MDA-MB-435
OVCAR-3 = tested on: OVCAR-3
RPMI-8226 = tested on: RPMI-8226
NCI-H460 = tested on: NCI-H460
SF-268 = tested on: SF-268
Hs-578T = tested on: Hs-578T
HL-60 = tested on: HL-60
M14 = tested on: M14
TK-10 = tested on: TK-10
MOLT-4 = tested on: MOLT-4
A498 = tested on: A498
UACC-257 = tested on: UACC-257
NCI-H226 = tested on: NCI-H226
HOP-92 = tested on: HOP-92
U-251 = tested on: U-251
SF-539 = tested on: SF-539
Malme-3M = tested on: Malme-3M
ACHN = tested on: ACHN
SF-295 = tested on: SF-295
HCT-116 = tested on: HCT-116
UO-31 = tested on: UO-31
SK-MEL-28 = tested on: SK-MEL-28
EKVX = tested on: EKVX
A549 = tested on: A549
OVCAR-5 = tested on: OVCAR-5
LOX IMVI = tested on: LOX IMVI
SK-MEL-5 = tested on: SK-MEL-5
OVCAR-8 = tested on: OVCAR-8
OVCAR-4 = tested on: OVCAR-4
COLO 205 = tested on: COLO 205
UACC-62 = tested on: UACC-62
RXF 393 = tested on: RXF 393
HCT-15 = tested on: HCT-15
NCI-H23 = tested on: NCI-H23
CCRF-CEM = tested on: CCRF-CEM
MDA-N = tested on: MDA-N
SN12C = tested on: SN12C
SK-OV-3 = tested on: SK-OV-3
786-0 = tested on: 786-0
HCC 2998 = tested on: HCC 2998
K562 = tested on: K562
HOP-62 = tested on: HOP-62
NCI-H522 = tested on: NCI-H522
HT-29 = tested on: HT-29
SR = tested on: SR
T47D = tested on: T47D
SNB-19 = tested on: SNB-19
NCI/ADR-RES = tested on: NCI/ADR-RES
SW-620 = tested on: SW-620
SNB-75 = tested on: SNB-75
MDA-MB-231 = tested on: MDA-MB-231
SK-MEL-2 = tested on: SK-MEL-2
KM12 = tested on: KM12
CAKI-1 = tested on: CAKI-1

Cc1cccc2c1C(=O)C1(Cc3ccccc3C1=O)C2 (centres undefined)
GI50 (PC-3): > 100 µM (inactive) | GI50 (MCF7): > 100 µM (inactive) | GI50 (IGROV-1): > 100 µM (inactive) | GI50 (DU-145): > 100 µM (inactive) | GI50 (MDA-MB-435): > 100 µM (inactive) | GI50 (OVCAR-3): > 100 µM (inactive) | GI50 (RPMI-8226): 57.9 µM (inactive) | GI50 (NCI-H460): 70.3 µM (inactive) | GI50 (SF-268): > 100 µM (inactive) | GI50 (Hs-578T): 48.3 µM (inactive) | GI50 (HL-60): > 100 µM (inactive) | GI50 (M14): > 100 µM (inactive) | GI50 (TK-10): > 100 µM (inactive) | GI50 (MOLT-4): 91.2 µM (inactive) | GI50 (A498): 47.1 µM (inactive) | GI50 (UACC-257): > 100 µM (inactive) | GI50 (NCI-H226): > 100 µM (inactive) | GI50 (HOP-92): > 100 µM (inactive) | GI50 (U-251): > 100 µM (inactive) | GI50 (SF-539): > 100 µM (inactive) | GI50 (Malme-3M): > 100 µM (inactive) | GI50 (ACHN): > 100 µM (inactive) | GI50 (SF-295): > 100 µM (inactive) | GI50 (HCT-116): > 100 µM (inactive) | GI50 (UO-31): 28.9 µM (inactive) | GI50 (SK-MEL-28): > 100 µM (inactive) | GI50 (EKVX): > 100 µM (inactive) | GI50 (A549): > 100 µM (inactive) | GI50 (OVCAR-5): > 100 µM (inactive) | GI50 (LOX IMVI): > 100 µM (inactive) | GI50 (SK-MEL-5): > 100 µM (inactive) | GI50 (OVCAR-8): > 100 µM (inactive) | GI50 (OVCAR-4): > 100 µM (inactive) | GI50 (COLO 205): > 100 µM (inactive) | GI50 (UACC-62): 84.7 µM (inactive) | GI50 (RXF 393): > 100 µM (inactive) | GI50 (HCT-15): > 100 µM | GI50 (NCI-H23): > 100 µM (inactive) | GI50 (CCRF-CEM): > 100 µM (inactive) | GI50 (MDA-N): > 100 µM (inactive) | GI50 (SN12C): > 100 µM (inactive) | GI50 (SK-OV-3): > 100 µM (inactive) | GI50 (786-0): > 100 µM (inactive) | GI50 (HCC 2998): > 100 µM (inactive) | GI50 (K562): > 100 µM (inactive) | GI50 (HOP-62): > 100 µM (inactive) | GI50 (NCI-H522): > 100 µM (inactive) | GI50 (HT-29): > 100 µM (inactive) | GI50 (SR): > 100 µM (inactive) | GI50 (T47D): 52.8 µM (inactive) | GI50 (SNB-19): > 100 µM (inactive) | GI50 (NCI/ADR-RES): 87.1 µM (inactive) | GI50 (SW-620): > 100 µM (inactive) | GI50 (SNB-75): 46.5 µM (inactive) | GI50 (MDA-MB-231): > 100 µM (inactive)

C#CC(O)/C=C/C(O)CCCC(O)CC#CC(O)C#CCCCCC(O)/C=C/CCCC(=O)CCCCCCCCCCCCCCCC(O)C(O)C#CC(=O)O (centres undefined)
GI50 (PC-3): > 25 µM (inactive) | GI50 (MCF7): > 25 µM (inactive) | GI50 (IGROV-1): 8.55 µM (inactive) | GI50 (DU-145): > 25 µM (inactive) | GI50 (MDA-MB-435): > 25 µM (inactive) | GI50 (RPMI-8226): > 25 µM (inactive) | GI50 (NCI-H460): > 25 µM (inactive) | GI50 (SF-268): > 25 µM (inactive) | GI50 (Hs-578T): > 25 µM (inactive) | GI50 (HL-60): > 25 µM (inactive) | GI50 (M14): > 25 µM (inactive) | GI50 (TK-10): > 25 µM (inactive) | GI50 (MOLT-4): > 25 µM (inactive) | GI50 (UACC-257): > 25 µM (inactive) | GI50 (NCI-H226): > 25 µM (inactive) | GI50 (HOP-92): > 25 µM (inactive) | GI50 (SK-MEL-2): > 25 µM (inactive) | GI50 (U-251): > 25 µM (inactive) | GI50 (Malme-3M): > 25 µM (inactive) | GI50 (ACHN): > 25 µM (inactive) | GI50 (SF-295): > 25 µM (inactive) | GI50 (HCT-116): > 25 µM (inactive) | GI50 (UO-31): > 25 µM (inactive) | GI50 (SK-MEL-28): > 25 µM (inactive) | GI50 (EKVX): > 25 µM (inactive) | GI50 (A549): > 25 µM (inactive) | GI50 (OVCAR-5): > 25 µM (inactive) | GI50 (LOX IMVI): 5.37 µM (inactive) | GI50 (SK-MEL-5): > 25 µM (inactive) | GI50 (OVCAR-8): > 25 µM (inactive) | GI50 (OVCAR-4): > 25 µM (inactive) | GI50 (COLO 205): > 25 µM (inactive) | GI50 (UACC-62): > 25 µM (inactive) | GI50 (RXF 393): 9.64 µM (inactive) | GI50 (HCT-15): > 25 µM | GI50 (NCI-H23): > 25 µM (inactive) | GI50 (KM12): > 25 µM (inactive) | GI50 (CCRF-CEM): > 25 µM (inactive) | GI50 (MDA-N): > 25 µM (inactive) | GI50 (SN12C): > 25 µM (inactive) | GI50 (SK-OV-3): > 25 µM (inactive) | GI50 (CAKI-1): > 25 µM (inactive) | GI50 (786-0): > 25 µM (inactive) | GI50 (HCC 2998): > 25 µM (inactive) | GI50 (K562): > 25 µM (inactive) | GI50 (HOP-62): > 25 µM (inactive) | GI50 (NCI-H522): 6.28 µM (inactive) | GI50 (HT-29): > 25 µM (inactive) | GI50 (SR): > 25 µM (inactive) | GI50 (T47D): 14.2 µM (inactive) | GI50 (SNB-19): > 25 µM (inactive) | GI50 (NCI/ADR-RES): > 25 µM (inactive) | GI50 (SNB-75): > 25 µM (inactive) | GI50 (MDA-MB-231): > 25 µM (inactive)
